Laboratory results from patent US10710988B2, “Piperazine derivative” (Astellas Pharma Inc., priority 2016, dated 2020).
Read-outs that look alike come from different tables or passages of the source.

Assays:
human MC4 receptor = target: T1, human MC4 receptor (Homo sapiens, UniProt P32245); assay: Human MC4 receptor activation, cAMP production in cells transiently expressing the receptor; format: cell-based; details: FreeStyle 293-F cells expressing human MC4 receptor, α-MSH maximum = 100%
T1 construct: expressed in transfected cells; host or cells: FreeStyle 293-F cells (transient, electroporation)
Text: (§1) (1) Construction of Human MC Receptor-Expressing Vector
(§2) A human MC4 receptor gene (GenBank Accession No.: NM_005912.2), a human MC1 receptor gene (GenBank Accession No.: NM_002386.3), or a human MC3 receptor gene (GenBank Accession No.: NM_019888.3) was introduced into an expression vector pcDNA™ 3.1N/V5-His TOPO (registered trademark) (Thermo Fisher Scientific Inc).
(§3) (2) Construction of Cells Transiently Expressing Human MC Receptor
(§4) An expression vector for a human MC4, MC1, or MC3 receptor was introduced into FreeStyle™ 293-F cells (Thermo Fisher Scientific Inc., product number: R790-07). For the introduction, electroporation was employed. That is, 1×10^7 FreeStyle™ 293-F cells were suspended in 80 μL of an Electroporation Buffer (Thermo Fisher Scientific Inc., product number: B201-100), and 20 μg of the expression vector was added thereto. The resultant was put into a cuvette (OC-100 Processing Assembly, MaxCyte, Inc.) and electroporated with MaxCyte STX (registered trademark) (MaxCyte, Inc.). The cells were cultured for a day, suspended in a Cell Banker (registered trademark) 1 (TAKARA BIO INC. or JUJI FIELD Inc., product number: BLC-1), and stored frozen until they were used.
(§5) (3) Measurement of Amount of cAMP Production
(§6) Measurement was carried out by using a LANCE (registered trademark) Ultra cAMP Kit (PerkinElmer, Inc.) in accordance with the attached instructions. That is, after dissolution in DMSO, the test compound (a final concentration of 1 pM to 30 μM) diluted with an assay buffer (Hank's balanced salt solution, 5 mM 4-(2-hydroxyethyl)-1-piperazineethanesulfonic acid (HEPES), 0.5 mM 3-isobutyl-1-methylxanthine (IBMX), 0.1% bovine serum albumin, pH 7.4), or α-MSH (Bachem Inc., a final concentration of 1 pM to 30 μM) was added to OptiPlate-384 (PerkinElmer, Inc.). Furthermore, the suspension of the cells transiently expressing the human MC4, MC1, or MC3 receptor prepared using the assay buffer was added thereto at 1,000 cells/well, and then left to stand at room temperature for about 1 hour. Thereafter, an Eu-cAMP tracer solution and an ULight™-anti-cAMP solution were added thereto, and then the resulting solution was left to stand at room temperature for about 1 hour. The amount of cAMP was calculated using EnVision (registered trademark) (PerkinElmer Inc.).
(§7) For the agonistic activity, the efficacy (EC50 (μM)) was calculated by a non-linear regression method with a Sigmoid-Emax model, by defining the maximum reaction using α-MSH as 100% and the reaction using the vehicle alone as 0%, respectively.

human MC1 receptor = target: T2, human MC1 receptor (Homo sapiens, UniProt Q01726); assay: Human MC1 receptor activation, cAMP production in cells transiently expressing the receptor; format: cell-based; details: FreeStyle 293-F cells expressing human MC1 receptor, α-MSH maximum = 100%
T2 construct: expressed in transfected cells; host or cells: FreeStyle 293-F cells (transient, electroporation)
Text: as §1, §2, §3, §4, §5, §6, §7

human MC3 receptor = target: T3, human MC3 receptor (Homo sapiens, UniProt P41968); assay: Human MC3 receptor activation, cAMP production in cells transiently expressing the receptor; format: cell-based; details: FreeStyle 293-F cells expressing human MC3 receptor, α-MSH maximum = 100%
T3 construct: expressed in transfected cells; host or cells: FreeStyle 293-F cells (transient, electroporation)
Text: as §1, §2, §3, §4, §5, §6, §7

rat MC4 receptor = target: T4, rat MC4 receptor (Rattus norvegicus, UniProt P70596); assay: Rat MC4 receptor activation, cAMP production in cells transiently expressing the receptor; format: cell-based; details: FreeStyle 293-F cells expressing rat MC4 receptor, α-MSH maximum = 100%
T4 construct: expressed in transfected cells; host or cells: FreeStyle 293-F cells (transient, electroporation)
Text: (1) Construction of Rat MC4 Receptor-Expressing Vector
A rat MC4 receptor gene (GenBank Accession No.: NM_013099.3) was introduced into an expression vector pcDNA™ 3.1N/V5-His TOPO (registered trademark) (Thermo Fisher Scientific Inc.).
(2) Construction of Cells Transiently Expressing Rat MC4 Receptor
as §4, with “rat MC4” for “human MC4, MC1, or MC3”, “Inc.).” for “Inc., product number: R790-07).”, “electroporation buffer” for “Electroporation Buffer”, “Inc.),” for “Inc., product number: B201-100),”, “Inc.),” for “Inc., product number: BLC-1),”
as §5
Measurement was carried out in accordance with the attached instructions, using a LANCE (registered trademark) Ultra cAMP Kit (PerkinElmer, Inc.). That is, after dissolution in DMSO, the test compound (a final concentration of 1 pM to 30 μM) diluted with an assay buffer (Hank's balanced salt solution, 5 mM HEPES, 0.5 mM IBMX, 0.1% bovine serum albumin, pH 7.4), or α-MSH (Bachem Inc., a final concentration of 1 pM to 30 μM) was added to OptiPlate-384 (PerkinElmer, Inc.). Furthermore, the suspension of the cells transiently expressing the rat MC receptor that was prepared using the assay buffer was added thereto at 1,000 cells/well, and then left to stand at room temperature for about 1 hour. Thereafter, an Eu-cAMP tracer solution and an ULight™-anti-cAMP solution were added thereto, and the resulting solution was left to stand at room temperature for about 1 hour. The amount of cAMP was calculated using EnVision (registered trademark) (PerkinElmer Inc).
For the agonistic activity, an efficacy (EC50 (μM)) was calculated by a non-linear regression method with a Sigmoid-Emax model, by defining the maximum reaction using α-MSH as 100% and the reaction using a vehicle alone as 0%, respectively.

[1] = test system: phenylephrine-induced urethral pressure increase; assay: Effect on rat urethral pressure (phenylephrine-induced urethral pressure increase); format: in vivo; details: read-out: ID40
Experimental: The present Test Example was performed by partially modifying the technique reported as a testing system for evaluating a urethral resistance-reducing action (European Journal of Pharmacology, 679, 127-131 (2012)). Male Wistar rats (Charles River Laboratories Japan, Inc.) were anesthetized with urethane (1.2 g/kg ip), and immobilized in a supine position. The midline incision was performed in the lower abdominal portion such that the bladder was exposed. The bladder apex was incised, and from the incision site, a microchip pressure transducer catheter (3.5 Fr, Millar, Inc) was inserted and implanted into the inside of the urethra. In addition, a cannula for drug administration was implanted into the femoral vein. After the urethral pressure was stabilized, phenylephrine hydrochloride (Sigma-Aldrich Co. LLC., 30 μg/kg) was intravenously administered to induce an increase in the urethral pressure. At an interval of about 30 minutes, the above operation was repeated twice or more so as to confirm the stability of the phenylephrine hydrochloride-induced urethral pressure increasing reaction. Then, a test compound (dissolved in 20% dimethyl acetamide, 10% Cremophor (registered trademark), and 70% physiological saline) was intravenously administered, and after 5 minutes, phenylephrine hydrochloride was administered. The procedure of the administration of the test compound and the administration of phenylephrine hydrochloride was repeated at an interval of about 30 minutes, and 3 to 5 doses of the test compound was evaluated (the test compound was administered at increasing doses). The obtained data was introduced into a personal computer through PowerLab (registered trademark) (ADInstruments, Inc.) and analyzed using LabChart (registered trademark) (ADInstruments, Inc.). For the evaluation, the value (AUC value, mmHg-s) of the area under the urethral pressure for one minute before and after administration of phenylephrine hydrochloride was determined to calculate the difference (ΔAUC value) between the AUC value before the administration of phenylephrine hydrochloride and the AUC value after the administration of phenylephrine hydrochloride. The ΔAUC value obtained before administering the test compound was regarded as being 100%, and based on this, the ratio (reaction rate) of the ΔAUC value of the test compound at each dose was calculated. The dose at which the obtained reaction rate became 60% (40% as an inhibition rate) was defined as ID40, and the ID40 values of the test compounds were calculated by non-linear regression.

[2] = male Wistar rats, urethane anesthesia, intravenous, dose giving 40% inhibition of phenylephrine-induced urethral pressure ΔAUC

T1 sequence (P32245 whole entry): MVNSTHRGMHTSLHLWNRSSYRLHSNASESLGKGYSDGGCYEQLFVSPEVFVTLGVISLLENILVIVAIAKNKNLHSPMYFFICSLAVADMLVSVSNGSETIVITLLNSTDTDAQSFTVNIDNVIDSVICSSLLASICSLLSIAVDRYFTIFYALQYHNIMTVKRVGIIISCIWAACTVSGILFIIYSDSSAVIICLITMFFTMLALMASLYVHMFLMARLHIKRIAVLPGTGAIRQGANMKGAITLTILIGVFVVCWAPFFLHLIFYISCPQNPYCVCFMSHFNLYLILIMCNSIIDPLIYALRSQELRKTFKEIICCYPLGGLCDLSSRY
T3 sequence (P41968 whole entry): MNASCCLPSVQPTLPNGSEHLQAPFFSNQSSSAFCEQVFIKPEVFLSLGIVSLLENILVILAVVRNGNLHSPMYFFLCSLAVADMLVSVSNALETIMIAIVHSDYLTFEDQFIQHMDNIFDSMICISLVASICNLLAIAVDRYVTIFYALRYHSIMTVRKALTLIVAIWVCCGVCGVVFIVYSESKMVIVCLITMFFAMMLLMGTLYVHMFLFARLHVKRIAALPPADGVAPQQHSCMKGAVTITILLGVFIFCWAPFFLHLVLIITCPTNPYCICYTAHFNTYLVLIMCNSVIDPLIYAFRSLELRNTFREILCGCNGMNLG
T2 sequence (Q01726 whole entry): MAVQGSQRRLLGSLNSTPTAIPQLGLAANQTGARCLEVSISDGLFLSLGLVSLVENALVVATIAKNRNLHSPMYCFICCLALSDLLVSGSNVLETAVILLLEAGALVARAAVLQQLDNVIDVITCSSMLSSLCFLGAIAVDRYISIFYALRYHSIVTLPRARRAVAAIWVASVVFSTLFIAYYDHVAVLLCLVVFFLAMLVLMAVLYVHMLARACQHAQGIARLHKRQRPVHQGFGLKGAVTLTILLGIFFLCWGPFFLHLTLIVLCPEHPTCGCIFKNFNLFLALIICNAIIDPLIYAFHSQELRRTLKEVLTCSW
T4 sequence (P70596 whole entry): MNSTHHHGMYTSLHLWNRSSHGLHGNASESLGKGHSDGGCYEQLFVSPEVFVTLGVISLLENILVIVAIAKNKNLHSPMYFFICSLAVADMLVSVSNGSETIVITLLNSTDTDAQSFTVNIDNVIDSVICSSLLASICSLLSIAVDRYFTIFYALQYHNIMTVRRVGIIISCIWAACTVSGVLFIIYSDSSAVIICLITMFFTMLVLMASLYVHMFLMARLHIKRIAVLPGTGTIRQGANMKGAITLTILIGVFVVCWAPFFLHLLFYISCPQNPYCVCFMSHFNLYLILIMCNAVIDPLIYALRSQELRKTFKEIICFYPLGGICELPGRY

Row | EC50 (human MC4 receptor) [nM] | EC50 (rat MC4 receptor) [nM] | SMILES | EC50 (human MC1 receptor) [nM] | EC50 (human MC3 receptor) [nM] | ED40 [1, 2] [mg/kg] | ED40 ([1]; iv) [mg/kg]
1 | 23 | 7.6 | CC(=O)N[C@@H](CC(C)(C)C)C(=O)N1CCN(C(=O)[C@@H]2CN(C3CCOCC3)C[C@H]2c2ccc(Cl)cc2F)[C@@H](C)C1.Cl [Example 20, N-{(2S)-1-[(3S)-4-{[(3 S,4R)-4-(4-chloro-2-fluorophenyl)-1-(tetrahydro-2H-pyran-4-yl)pyrrolidin-3-yl]carbonyl}-3-methylpiperazin-1-yl]-4,4-dimethyl-1-oxopentan-2-yl}acetamide monohydrochloride] | 8000 | 1200 | 40 | –
2 | 14 | – | CC(=O)N[C@@H](CC1CCCC1)C(=O)N1CCN(C(=O)[C@@H]2CN(C(C)(C)C)C[C@H]2c2ccc(F)cc2F)[C@@H](C)C1.Cl [Example 16, N-((2S)-1-[(3S)-4-{[(3S,4R)-1-tert-butyl-4-(2,4-difluorophenyl)pyrrolidin-3-yl]carbonyl}-3-methylpiperazin-1-yl]-3-cyclopentyl-1-oxopropan-2-yl) acetamide monohydrochloride] | – | – | 11 | –

Row | SMILES | EC50 (human MC4 receptor) [nM] | EC50 (rat MC4 receptor) [nM] | EC50 (human MC1 receptor) [nM] | EC50 (human MC3 receptor) [nM] | ED40 [1, 2] [mg/kg] | ED40 ([1]; iv) [mg/kg]
3 | CC(=O)N[C@@H](CC(C)(C)C)C(=O)N1C[C@H](C)N(C(=O)[C@@H]2CN(C3CCOCC3)C[C@H]2c2ccc(Cl)cc2F)C[C@H]1C [Example 3] | 8 | – | 5700 | 310 | – | 8.9
